Several values for one entry are separate records, joined by “and”; a condition that tells them apart may be missing. Equal entries are not always repeated. Toxic doses and inconclusive results are not listed. How the source made its calls: active means survival T/C of 150% or more; inactive means T/C below 125% in these data. Non-standard residues stand in square brackets, D forms with d. Residues, ends and D or L forms follow the SMILES beside them. ξ: configuration not given here. *: point of attachment. Cbz = O=C(OCc1ccccc1)*; ξV = CC(C)C(N)C(=O)O
System: CD2F1 mice, L1210 leukemia ip, survival T/C
Test: NCI In Vivo Anticancer Drug Screen. Data for tumor model L1210 Leukemia (intraperitoneal) in CD2F1 (CDF1) mice
Settings: higher = longer survival
Summary of the method: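 Ratio T/C, where T is the treated-group value and C the vehicle-dosed control value, from mice implanted with a transplantable tumor.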

[1] = endpoint: mean survival time, dose: 100.0 mg/kg/injection, schedule: Q04DX003 (ip), vehicle: saline
[2] = endpoint: mean survival time, dose: 200.0 mg/kg/injection, schedule: Q04DX003 (ip), vehicle: saline
[3] = endpoint: mean survival time, dose: 400.0 mg/kg/injection, schedule: Q04DX003 (ip), vehicle: saline
[4] = endpoint: mean survival time, dose: 100.0 mg/kg/injection, schedule: Q04DX003 (ip), vehicle: saline with Tween-80
[5] = endpoint: mean survival time, dose: 200.0 mg/kg/injection, schedule: Q04DX003 (ip), vehicle: saline with Tween-80
[6] = endpoint: mean survival time, dose: 400.0 mg/kg/injection, schedule: Q04DX003 (ip), vehicle: saline with Tween-80

Measured: T/C

CCc1nc(N)nc(N)c1-c1ccc(Cl)cc1
inactive: endpoint: mean survival time, dose: 2.0 mg/kg/injection, schedule: Q03HX008 (ip), vehicle: saline 92 % of control | endpoint: mean survival time, dose: 2.0 mg/kg/injection, schedule: Q03HX016 (ip), vehicle: saline 89 % of control | endpoint: mean survival time, dose: 2.0 mg/kg/injection, schedule: Q03HX024 (ip), vehicle: saline 88 % of control | endpoint: mean survival time, dose: 4.0 mg/kg/injection, schedule: Q03HX008 (ip), vehicle: saline 90 % of control | endpoint: mean survival time, dose: 4.0 mg/kg/injection, schedule: Q03HX016 (ip), vehicle: saline 91 % of control | endpoint: mean survival time, dose: 4.0 mg/kg/injection, schedule: Q03HX024 (ip), vehicle: saline 86 % of control | endpoint: mean survival time, dose: 8.0 mg/kg/injection, schedule: Q01DX009 (oral), vehicle: saline 92 % of control | endpoint: mean survival time, dose: 8.0 mg/kg/injection, schedule: Q03HX008 (ip), vehicle: saline 92 % of control | endpoint: mean survival time, dose: 8.0 mg/kg/injection, schedule: Q03HX016 (ip), vehicle: saline 87 % of control | endpoint: mean survival time, dose: 8.0 mg/kg/injection, schedule: Q03HX024 (ip), vehicle: saline 88 % of control and 93 % of control | endpoint: mean survival time, dose: 16.0 mg/kg/injection, schedule: Q01DX001 (ip), vehicle: saline 107 % of control | endpoint: mean survival time, dose: 16.0 mg/kg/injection, schedule: Q01DX001 (oral), vehicle: saline 101 % of control | endpoint: mean survival time, dose: 16.0 mg/kg/injection, schedule: Q01DX009 (ip), vehicle: saline 101 % of control | endpoint: mean survival time, dose: 16.0 mg/kg/injection, schedule: Q01DX009 (oral), vehicle: saline 95 % of control | endpoint: mean survival time, dose: 16.0 mg/kg/injection, schedule: Q03HX008 (ip), vehicle: saline 89 % of control and 91 % of control | endpoint: mean survival time, dose: 16.0 mg/kg/injection, schedule: Q03HX016 (ip), vehicle: saline 91 % of control and 100 % of control | endpoint: mean survival time, dose: 16.0 mg/kg/injection, schedule: Q03HX024 (ip), vehicle: saline 90 % of control and 96 % of control | endpoint: mean survival time, dose: 16.0 mg/kg/injection, schedule: Q04DX003 (ip), vehicle: saline 88 % of control | endpoint: mean survival time, dose: 16.0 mg/kg/injection, schedule: Q08DX002 (ip), vehicle: saline 97 % of control | endpoint: mean survival time, dose: 32.0 mg/kg/injection, schedule: Q01DX001 (ip), vehicle: saline 98 % of control | endpoint: mean survival time, dose: 32.0 mg/kg/injection, schedule: Q01DX001 (oral), vehicle: saline 96 % of control | endpoint: mean survival time, dose: 32.0 mg/kg/injection, schedule: Q01DX009 (ip), vehicle: saline 106 % of control | endpoint: mean survival time, dose: 32.0 mg/kg/injection, schedule: Q01DX009 (oral), vehicle: saline 112 % of control | endpoint: mean survival time, dose: 32.0 mg/kg/injection, schedule: Q04DX003 (ip), vehicle: saline 87 % of control | endpoint: mean survival time, dose: 32.0 mg/kg/injection, schedule: Q08DX002 (ip), vehicle: saline 94 % of control | endpoint: mean survival time, dose: 64.0 mg/kg/injection, schedule: Q01DX001 (ip), vehicle: saline 100 % of control | endpoint: mean survival time, dose: 64.0 mg/kg/injection, schedule: Q01DX001 (oral), vehicle: saline 98 % of control | endpoint: mean survival time, dose: 64.0 mg/kg/injection, schedule: Q01DX009 (ip), vehicle: saline 108 % of control | endpoint: mean survival time, dose: 64.0 mg/kg/injection, schedule: Q01DX009 (oral), vehicle: saline 120 % of control and 96 % of control | endpoint: mean survival time, dose: 64.0 mg/kg/injection, schedule: Q04DX003 (ip), vehicle: saline 86 % of control and 95 % of control | endpoint: mean survival time, dose: 64.0 mg/kg/injection, schedule: Q08DX002 (ip), vehicle: saline 95 % of control | endpoint: mean survival time, dose: 128.0 mg/kg/injection, schedule: Q01DX001 (ip), vehicle: saline 100 % of control | endpoint: mean survival time, dose: 128.0 mg/kg/injection, schedule: Q01DX001 (oral), vehicle: saline 91 % of control | endpoint: mean survival time, dose: 128.0 mg/kg/injection, schedule: Q04DX003 (ip), vehicle: saline 96 % of control | endpoint: mean survival time, dose: 128.0 mg/kg/injection, schedule: Q08DX002 (ip), vehicle: saline 93 % of control and 101 % of control

N#Cc1cn(C2CCCCC2)c2[nH]c(=O)cc(O)c12
inactive: [1] 97 % of control | [2] 101 % of control | [3] 121 % of control

COC(=O)C(NC(=O)CNC(=O)OCc1ccccc1)C(C)C (stereo not drawn) (Cbz-Gly-[ξV]-OMe)
inactive: [4] 100 % of control | [5] 97 % of control | [6] 99 % of control

O=C1C=C(O)C2C(=O)C1C1/C(=[N+](/[O-])O)C=C([N+](=O)[O-])C2C1[N+](=O)[O-] (centres undefined)
inactive: endpoint: mean survival time, dose: 100.0 mg/kg/injection, schedule: Q04DX002 (ip), vehicle: saline with Tween-80 98 % of control | endpoint: mean survival time, dose: 200.0 mg/kg/injection, schedule: Q04DX002 (ip), vehicle: saline with Tween-80 110 % of control | endpoint: mean survival time, dose: 400.0 mg/kg/injection, schedule: Q04DX002 (ip), vehicle: saline with Tween-80 98 % of control

CC(CC(=O)O)c1ccc(Cl)cc1 (centres undefined)
inactive: [4] 101 % of control | [5] 101 % of control | [6] 101 % of control

CC1(c2cc(F)cc3ccccc23)OC(=O)c2ccccc21 (centres undefined)
inactive: endpoint: median survival time, dose: 25.0 mg/kg/injection, schedule: Q04DX003 (ip), vehicle: saline with Tween-80 100 % of control | endpoint: median survival time, dose: 50.0 mg/kg/injection, schedule: Q04DX003 (ip), vehicle: saline with Tween-80 100 % of control | endpoint: median survival time, dose: 100.0 mg/kg/injection, schedule: Q04DX003 (ip), vehicle: saline with Tween-80 100 % of control | endpoint: median survival time, dose: 200.0 mg/kg/injection, schedule: Q04DX003 (ip), vehicle: saline with Tween-80 100 % of control

Cc1cccc(CCl)n1
inactive: endpoint: mean survival time, dose: 100.0 mg/kg/injection, schedule: Q01DX009 (ip), vehicle: saline 98 % of control | [1] 101 % of control | endpoint: mean survival time, dose: 200.0 mg/kg/injection, schedule: Q01DX009 (ip), vehicle: saline 90 % of control | [2] 95 % of control | [3] 87 % of control

NC(CSSc1ccccc1)=NC1CCCCC1
inactive: endpoint: mean survival time, dose: 12.5 mg/kg/injection, schedule: Q01DX001 (ip), vehicle: Klucel (hydroxypropylcellulose) (HPC) 97 % of control | endpoint: mean survival time, dose: 25.0 mg/kg/injection, schedule: Q01DX001 (ip), vehicle: Klucel (hydroxypropylcellulose) (HPC) 92 % of control | endpoint: mean survival time, dose: 50.0 mg/kg/injection, schedule: Q01DX001 (ip), vehicle: Klucel (hydroxypropylcellulose) (HPC) 97 % of control

O=C(Nc1nccs1)c1ccc([N+](=O)[O-])cc1
inactive: endpoint: mean survival time, dose: 100.0 mg/kg/injection, schedule: Q01DX001 (ip), vehicle: saline with Tween-80 95 % of control | endpoint: mean survival time, dose: 200.0 mg/kg/injection, schedule: Q01DX001 (ip), vehicle: saline with Tween-80 88 % of control | endpoint: mean survival time, dose: 400.0 mg/kg/injection, schedule: Q01DX001 (ip), vehicle: saline with Tween-80 100 % of control

NC(=O)c1ccc[n+](Cc2c(Cl)cccc2Cl)c1
inactive: [4] 105 % of control | endpoint: median survival time, dose: 0.75 mg/kg/injection, schedule: Q01DX009 (ip), vehicle: saline 102 % of control | endpoint: median survival time, dose: 1.5 mg/kg/injection, schedule: Q01DX009 (ip), vehicle: saline 101 % of control | endpoint: median survival time, dose: 3.0 mg/kg/injection, schedule: Q01DX009 (ip), vehicle: saline 109 % of control | endpoint: median survival time, dose: 6.0 mg/kg/injection, schedule: Q01DX009 (ip), vehicle: saline 102 % of control | endpoint: median survival time, dose: 12.0 mg/kg/injection, schedule: Q01DX009 (ip), vehicle: saline 102 % of control

COC(=O)c1cc(Cl)cc(C(=O)OC)c1
inactive: endpoint: mean survival time, dose: 100.0 mg/kg/injection, schedule: Q01DX009 (ip), vehicle: saline with Tween-80 95 % of control | endpoint: mean survival time, dose: 200.0 mg/kg/injection, schedule: Q01DX009 (ip), vehicle: saline with Tween-80 88 % of control

N=C(N)SCSC(=N)N
inactive: [1] 100 % of control | [2] 103 % of control

O=C(O)c1cccnc1Cl
inactive: endpoint: mean survival time, dose: 75.0 mg/kg/injection, schedule: Q01DX009 (ip), vehicle: Klucel (hydroxypropylcellulose) (HPC) 111 % of control | endpoint: mean survival time, dose: 150.0 mg/kg/injection, schedule: Q01DX009 (ip), vehicle: Klucel (hydroxypropylcellulose) (HPC) 94 % of control

— PubChem BioAssay AID256 (DTP/NCI, 2004)
